Source: patent publication US10765114B2, “4-amino-6-(pyridyl and 2-substitutedphenyl)-picolinates and 6-amino-2-(pyridyl and 2-substitutedphenyl)-pyrimidine-4-carboxylates and their use as herbicides” (Dow AgroSciences LLC, priority 2013, dated 2020)
Read-outs that look alike come from different tables or passages of the source.

Key:
[1] = system: Key Grass and Sedge Weeds as well as Grass Crops; assay: Post-Emergent Test II (Table 6); format: in vivo; details: post-emergence, 336 h, 14 days after application; for pest or weed control at 70 g/ha: 70 g ai/ha; for pest or weed control at 140 g/ha: 140 g ai/ha
Method in brief: (§1)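 Seedlings are raised 7-21 days in Metro-Mix 360 (pH 6.0-6.8) under greenhouse conditions, then sprayed at the first or second true leaf stage. Application is 187 L/ha, with serial rates down to 1/16× of the highest. Plants are subirrigated, and percent injury is rated visually after 14 days.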

[2] = system: Key Broadleaf Weed and Crop Species; assay: Post-Emergent Test II (Table 5); format: in vivo; details: post-emergence, 336 h; for pest or weed control at 70 g/ha: application rate 70 (kg ai/ha; footnote: g ai/ha); for pest or weed control at 140 g/ha: application rate 140 (kg ai/ha; footnote: g ai/ha)
Method in brief: as §1

[3] = CYPSS, read-out: Visual Growth Reduction (%) 14 Days After Application CYPSS
[4] = DIGSA: crabgrass (Digitaria sanguinalis), read-out: Visual Growth Reduction (%) 14 Days After Application DIGSA
[5] = ECHSS, read-out: Visual Growth Reduction (%) 14 Days After Application ECHSS
[6] = ORYSS (crop), read-out: Visual Growth Reduction (%) 14 Days After Application ORYSS
[7] = SETFA: giant foxtail (Setaria faberi), read-out: Visual Growth Reduction (%) 14 Days After Application SETFA
[8] = SORVU: grain sorghum (Sorghum vulgare), read-out: Visual Growth Reduction (%) 14 Days After Application SORVU
[9] = TRZSS (crop), read-out: Visual Growth Reduction (%) 14 Days After Application TRZSS
[10] = ZEAMX: maize, corn (Zea mays), read-out: Visual Growth Reduction (%) 14 Days After Application ZEAMX
[11] = Abutilon theophrasti, ABUTH: velvetleaf (Abutilon theophrasti), read-out: Visual Growth Reduction (%) 14 Days After Application ABUTH
[12] = Amaranthus retroflexus, AMARE: redroot pigweed (Amaranthus retroflexus), read-out: Visual Growth Reduction (%) 14 Days After Application AMARE
[13] = Brassica napus, BRSSS: oilseed rape, canola (Brassica napus), read-out: Visual Growth Reduction (%) 14 Days After Application BRSSS
[14] = Chenopodium album, CHEAL: lambsquarters (Chenopodium album), read-out: Visual Growth Reduction (%) 14 Days After Application CHEAL
[15] = Euphorbia heterophylla, EPHHL: wild poinsettia (Euphorbia heterophylla), read-out: Visual Growth Reduction (%) 14 Days After Application EPHHL
[16] = Helianthus annuus, HELAN: sunflower (Helianthus annuus), read-out: Visual Growth Reduction (%) 14 Days After Application HELAN
[17] = Viola tricolor, VIOTR: wild pansy (Viola tricolor), read-out: Visual Growth Reduction (%) 14 Days After Application VIOTR

Row | SMILES | melting point [°C] | pest or weed control at 70 g/ha [1, 3] [%] | pest or weed control at 140 g/ha [1, 3] [%] | pest or weed control at 70 g/ha [1, 4] [%] | pest or weed control at 140 g/ha [1, 4] [%] | pest or weed control at 70 g/ha [1, 5] [%] | pest or weed control at 140 g/ha [1, 5] [%] | pest or weed control at 70 g/ha [1, 6] [%] | pest or weed control at 140 g/ha [1, 6] [%] | pest or weed control at 70 g/ha [1, 7] [%] | pest or weed control at 140 g/ha [1, 7] [%] | pest or weed control at 70 g/ha [1, 8] [%] | pest or weed control at 140 g/ha [1, 8] [%] | pest or weed control at 70 g/ha [1, 9] [%] | pest or weed control at 140 g/ha [1, 9] [%] | pest or weed control at 70 g/ha [1, 10] [%] | pest or weed control at 140 g/ha [1, 10] [%] | pest or weed control at 70 g/ha [2, 11] [%] | pest or weed control at 140 g/ha [2, 11] [%] | pest or weed control at 70 g/ha [2, 12] [%] | also measured
1 | COC(=O)c1nc(-c2ccc(Cl)nc2F)c(F)c(N)c1Cl [Compound 45] | 190 to 191 | 95 to 100 | 95 to 100 | 60 to 74 | 75 to 84 | 75 to 84 | 85 to 94 | 0 to 29 | 0 to 29 | 45 to 59 | 45 to 59 | 30 to 44 | 45 to 59 | 0 to 29 | 0 to 29 | 0 to 29 | 0 to 29 | 85 to 94 | 95 to 100 | 95 to 100 | pest or weed control at 140 g/ha [2, 12]: 95 to 100%; pest or weed control at 70 g/ha [2, 13]: 0 to 29%; pest or weed control at 140 g/ha [2, 13]: 30 to 44%; pest or weed control at 70 g/ha [2, 14]: 95 to 100%; pest or weed control at 140 g/ha [2, 14]: 95 to 100%; pest or weed control at 70 g/ha [2, 15]: 30 to 44%; pest or weed control at 140 g/ha [2, 15]: 45 to 59%; pest or weed control at 70 g/ha [2, 16]: 95 to 100%; pest or weed control at 140 g/ha [2, 16]: 95 to 100%; pest or weed control at 70 g/ha [2, 17]: 75 to 84%; pest or weed control at 140 g/ha [2, 17]: 95 to 100%
2 | Cc1c(-c2cc(N)c(Cl)c(C(=O)O)n2)ccc(F)c1F [Compound 87] | 163 to 165 | 0 to 29 | 0 to 29 | 0 to 29 | 0 to 29 | 0 to 29 | 0 to 29 | 0 to 29 | 0 to 29 | 0 to 29 | 0 to 29 | 0 to 29 | 0 to 29 | 0 to 29 | 0 to 29 | 0 to 29 | 0 to 29 | 95 to 100 | 95 to 100 | 95 to 100 | pest or weed control at 140 g/ha [2, 12]: 95 to 100%; pest or weed control at 70 g/ha [2, 13]: 85 to 94%; pest or weed control at 140 g/ha [2, 13]: 85 to 94%; pest or weed control at 70 g/ha [2, 14]: 95 to 100%; pest or weed control at 140 g/ha [2, 14]: 95 to 100%; pest or weed control at 70 g/ha [2, 15]: 0 to 29%; pest or weed control at 140 g/ha [2, 15]: 0 to 29%; pest or weed control at 70 g/ha [2, 16]: 85 to 94%; pest or weed control at 140 g/ha [2, 16]: 95 to 100%; pest or weed control at 70 g/ha [2, 17]: 0 to 29%; pest or weed control at 140 g/ha [2, 17]: 0 to 29%
3 | Nc1c(F)c(-c2ccc(C(F)(F)F)nc2)nc(C(=O)O)c1Cl [Compound 46, 4-amino-5-chloro-3-fluoro-6′-(trifluoromethyl)-[2,3′-bipyridine]-6-carboxylic acid] | 164 | 95 to 100 | 95 to 100 | 95 to 100 | 95 to 100 | 95 to 100 | 95 to 100 | 75 to 84 | 95 to 100 | 95 to 100 | 95 to 100 | 85 to 94 | 85 to 94 | 75 to 84 | 85 to 94 | 85 to 94 | 85 to 94 | 85 to 94 | 95 to 100 | 95 to 100 | pest or weed control at 140 g/ha [2, 12]: 95 to 100%; pest or weed control at 70 g/ha [2, 13]: 95 to 100%; pest or weed control at 140 g/ha [2, 13]: 95 to 100%; pest or weed control at 70 g/ha [2, 14]: 95 to 100%; pest or weed control at 140 g/ha [2, 14]: 95 to 100%; pest or weed control at 70 g/ha [2, 15]: 95 to 100%; pest or weed control at 140 g/ha [2, 15]: 95 to 100%; pest or weed control at 70 g/ha [2, 16]: 95 to 100%; pest or weed control at 140 g/ha [2, 16]: 95 to 100%; pest or weed control at 70 g/ha [2, 17]: 85 to 94%; pest or weed control at 140 g/ha [2, 17]: 95 to 100%
